Patent publication US20250206738A1, “WRN INHIBITORS” (Nimbus Wadjet, Inc., priority 2023, published 2025)

Molecular target: T1, human Werner helicase (WRN, Uniprot Q14191, amino acids 517-1235 with L1074F point mutation; WRN-BV08) (Homo sapiens, UniProt Q14191, L1074F)
T1 construct: Uniprot Q14191, amino acids 517-1235 with L1074F point mutation; 8xHis (C, cleaved yes); TEV cleavage site (ENLYFQG) (C, cleaved yes); made in house; host or cells: Sf9 insect cells (baculovirus, pFastBac)
Experiment: WRN (BV08) ADP-Glo assay
Format: biochemical
Details: WRN-BV08 (aa 517-1235, L1074F); read-out: ADP-Glo_hWRN_IC50
Description: Example 2: WRN (BV08) ADP-Glo Assay Protocol
Bovine skin gelatin (BSG), dimethyl sulfoxide (DMSO), Pluronic F-127 and tris(2-carboxyethyl)phosphine hydrochloride solution (TCEP) were purchased from Sigma-Aldrich (St. Louis, MO) at the highest level of purity possible. Bicine buffer solution was purchased from Alfa Aesar (Tewksbury, MA) and compound NSC-617145 was purchased from Tocris (Minneapolis, MN). DNA duplex was synthesized at BGI (Shenzhen, China) and was composed of strand 1 with the sequence 5′-[…]-3′ (SEQ ID NO.: 1) and strand 2 with the sequence 5′-[…]-3′ (SEQ ID NO.: 2). DNA strands were annealed by heating to 95° C. for 5 minutes followed by slow cooling to room temperature. Compounds in 100% DMSO ([…]) were spotted into a 384-well white polystyrene Optiplate-384 (Perkin Elmer; Waltham, MA) assay plate using a LabCyte Echo 550 (Agilent; Santa Clara, CA). DMSO ([…]) was added to columns 12, rows A-H and column 24, rows I-P for the maximum signal control. Compound NSC-617145 ([…]) was added to columns 12, rows I-P and 24, rows A-H for the minimum signal control (100% inhibition). Compounds/DMSO were preincubated for 15 minutes at 25° C. with […] 2×WRN (BV08), prepared as described below, in assay buffer containing 20 mM Bicine (pH=7.5), 1 mM MgCl2, 10 mM KCl, 0.1% Pluronic F-127, 0.005% BSG, 1 mM TCEP. The reaction was initiated by the addition of […] 2× substrate mixture in assay buffer and incubated for 60 minutes at 25° C. The final concentrations of the assay components were 0.15 nM WRN, […], and 0.1 nM DNA duplex. The final DMSO concentration was 1% and the reference compound concentration (NSC-617145) used for the minimal signal control was […]. The reaction was stopped by the addition of the ADP-Glo Kit components (Promega; Madison, WI) as directed and the relative luminescence units (RLU) were read on an Envision 2104 (Perkin Elmer; Waltham, MA).
% Inhibition Calculation:
Where RLU=relative luminescence units, sample=signal in sample well, and MIN and MAX are the respective minimum and maximum signal controls.
Four-Parameter IC50 Fit Equation:
Where top and bottom are normally allowed to float but may be fixed at 100 or 0 respectively in a 3-parameter fit. Y is the % inhibition and X is the compound concentration.
Molecular Biology and virus production. The DNA encoding human Werner helicase (Uniprot Q14191, amino acids 517-1235 with L1074F point mutation) was generated with codon-optimization for […] expression and subcloned into the pFastBac vector with a TEV cleavable 8×His tag (SEQ ID NO: 5) (WRN—BV08). The baculovirus from the expression plasmid WRN—BV08 was generated from transfection and amplification following the manufacturer's instructions.
Sf9 cells grown in SF900II media were infected with 1:200 WRN—BV08 P2 virus and incubated for protein expression for 72 h at 27° C. The WRN protein was purified using the following protocol. The cell pellets were thawed and resuspended in buffer A (50 mM Tris, pH 7.5, 500 mM NaCl, 1 mM TCEP, 10% Glycerol) supplemented with 0.5% CHAPS, 1 mM PMSF, 1 μg/ml Leupeptin, 1 μg/ml Pepstatin, and the Pierce Universal Nuclease and cocktail tablet. Cleared lysates were loaded onto a Ni Sepharose™ excel column and washed with buffer A and bound protein was eluted with buffer A supplemented with 300 mM imidazole. The eluted protein was dialyzed against buffer A and digested by His-tagged TEV (1:5 ratio) overnight at 4° C. ZnCl2 was added into the sample at final 15 μM before loading onto a second Ni Sepharose™ excel column. Untagged WRN protein was eluted from the column with buffer A supplemented with 20 mM imidazole, dialyzed overnight into buffer B (50 mM Tris, pH 7.5, 1 mM TCEP, 10% Glycerol) supplemented with 150 mM NaCl and loaded onto a Heparin column. Proteins were eluted with a step gradient of buffer B supplemented with 150 mM, 200 mM, 300 mM and 500 mM NaCl. […]

T1 sequence (Q14191 with tags, fused parts or gaps L1074F): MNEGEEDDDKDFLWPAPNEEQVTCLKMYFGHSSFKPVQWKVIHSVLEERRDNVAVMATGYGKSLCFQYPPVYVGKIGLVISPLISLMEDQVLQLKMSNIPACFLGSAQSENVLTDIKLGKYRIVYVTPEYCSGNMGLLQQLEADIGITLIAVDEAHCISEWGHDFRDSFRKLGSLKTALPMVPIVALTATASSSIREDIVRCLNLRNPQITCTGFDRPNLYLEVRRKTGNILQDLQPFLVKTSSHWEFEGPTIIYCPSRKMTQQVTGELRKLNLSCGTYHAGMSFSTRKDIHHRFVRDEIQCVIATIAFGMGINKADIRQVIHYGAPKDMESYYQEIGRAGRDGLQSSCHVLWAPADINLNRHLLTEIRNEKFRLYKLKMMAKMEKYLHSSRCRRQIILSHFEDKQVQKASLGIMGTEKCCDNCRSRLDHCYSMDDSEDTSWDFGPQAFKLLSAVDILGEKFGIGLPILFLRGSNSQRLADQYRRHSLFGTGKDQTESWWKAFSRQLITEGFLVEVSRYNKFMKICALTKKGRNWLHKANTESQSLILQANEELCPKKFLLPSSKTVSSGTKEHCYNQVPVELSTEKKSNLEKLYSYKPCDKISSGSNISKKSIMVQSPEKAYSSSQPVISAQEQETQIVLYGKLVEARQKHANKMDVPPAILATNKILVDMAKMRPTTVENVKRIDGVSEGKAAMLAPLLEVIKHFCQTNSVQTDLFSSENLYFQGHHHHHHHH

Row | IC50 [nM] | SMILES
1 | 50 to 100 | CCc1c(N2CCN(C(=O)c3ncc4c(c3O)CCO4)CC2)c(=O)n2nc(C3=CCOCC3)nc2n1CC(=O)NC12CC(C)(C1)C2 [I-5, 2-(2-(3,6-dihydro-2H-pyran-4-yl)-5-ethyl-6-(4-(4-hydroxy-2,3-dihydrofuro[2,3-c]pyridine-5-carbonyl)piperazin-1-yl)-7-oxo-[1,2,4]triazolo[1,5-a]pyrimidin-4(7H)-yl)-N-(3-methylbicyclo[1.1.1]pentan-1-yl)acetamide]
2 | > 500 | CCc1c(N2CCN(C(=O)c3ncc4c(c3O)CCO4)CC2)c(=O)n2nc(C3=CCOCC3)nc2n1CC(=O)NC12CC(F)(C1)C2 [I-6, 2-(2-(3,6-dihydro-2H-pyran-4-yl)-5-ethyl-6-(4-(4-hydroxy-2,3-dihydrofuro[2,3-c]pyridine-5-carbonyl)piperazin-1-yl)-7-oxo-[1,2,4]triazolo[1,5-a]pyrimidin-4(7H)-yl)-N-(3-fluorobicyclo[1.1.1]pentan-1-yl)acetamide]
3 | 100 to 500 | CCc1c(N2CCN(C(=O)c3ncc4c(c3O)CCO4)CC2)c(=O)n2nc(C3=CCOCC3)nc2n1CC(=O)NC12CC(C(F)F)(C1)C2 [I-8, N-(3-(difluoromethyl)bicyclo[1.1.1]pentan-1-yl)-2-(2-(3,6-dihydro-2H-pyran-4-yl)-5-ethyl-6-(4-(4-hydroxy-2,3-dihydrofuro[2,3-c]pyridine-5-carbonyl)piperazin-1-yl)-7-oxo-[1,2,4]triazolo[1,5-a]pyrimidin-4(7H)-yl)acetamide]
4 | > 500 | CCc1c(N2CCN(C(=O)c3ncc4c(c3O)CCO4)CC2)c(=O)n2nc(C3=CCOCC3)nc2n1CC(=O)NC12CC(OC)(C1)C2 [I-12, 2-(2-(3,6-dihydro-2H-pyran-4-yl)-5-ethyl-6-(4-(4-hydroxy-2,3-dihydrofuro[2,3-c]pyridine-5-carbonyl)piperazin-1-yl)-7-oxo-[1,2,4]triazolo[1,5-a]pyrimidin-4(7H)-yl)-N-(3-methoxybicyclo[1.1.1]pentan-1-yl)acetamide]
5 | 5 to 50 | CCc1c(N2CCN(C(=O)c3ncnc(C)c3O)[C@H]3CCC[C@@H]32)c(=O)c2nn(-c3ccnc(OC)c3)nc2n1CC(=O)NC12CC(C3CC3)(C1)C2 [I-54, 2-{6-[(4aS,7aS)-4-(5-hydroxy-6-methylpyrimidine-4-carbonyl)-octahydro-1H-cyclopenta[b]pyrazin-1-yl]-5-ethyl-2-(2-methoxypyridin-4-yl)-7-oxo-2H,4H,7H-[1,2,3]triazolo[4,5-b]pyridin-4-yl}-N-{3-cyclopropylbicyclo[1.1.1]pentan-1-yl}acetamide]
6 | 5 to 50 | CCc1c(N2CCN(C(=O)c3ncnc(C)c3O)CC2)c(=O)c2nn(C3=CCOCC3)nc2n1CC(=O)NC12CC(C(C)C)(C1)C2 [I-59, 2-[2-(3,6-dihydro-2H-pyran-4-yl)-5-ethyl-6-[4-(5-hydroxy-6-methylpyrimidine-4-carbonyl)piperazin-1-yl]-7-oxo-2H,4H,7H-[1,2,3]triazolo[4,5-b]pyridin-4-yl]-N-[3-(propan-2-yl)bicyclo[1.1.1]pentan-1-yl]acetamide]
7 | 5 to 50 | CCc1c(N2CCN(C(=O)c3ncnc(C)c3O)[C@H]3CCC[C@@H]32)c(=O)c2nn(C3=CCOCC3)nc2n1CC(=O)NC12CC(C3CC3)(C1)C2 [I-60, 2-{6-[(4aS,7aS)-4-(5-hydroxy-6-methylpyrimidine-4-carbonyl)-octahydro-1H-cyclopenta[b]pyrazin-1-yl]-2-(3,6-dihydro-2H-pyran-4-yl)-5-ethyl-7-oxo-2H,4H,7H-[1,2,3]triazolo[4,5-b]pyridin-4-yl}-N-{3-cyclopropylbicyclo[1.1.1]pentan-1-yl}acetamide]
8 | 5 to 50 | CCc1c(N2CCN(C(=O)c3ncnc(C)c3O)[C@H]3CC[C@@H]32)c(=O)c2nn(-c3ccn(C4CC4)n3)nc2n1CC(=O)NC12CC(C(C)C)(C1)C2 [I-78, 2-[2-(1-cyclopropyl-1H-pyrazol-3-yl)-5-ethyl-6-[(1S,6S)-5-(5-hydroxy-6-methylpyrimidine-4-carbonyl)-2,5-diazabicyclo[4.2.0]octan-2-yl]-7-oxo-2H,4H,7H-[1,2,3]triazolo[4,5-b]pyridin-4-yl]-N-[3-(propan-2-yl)bicyclo[1.1.1]pentan-1-yl]acetamide]
9 | ≤ 5 | CCc1c(N2CCN(C(=O)c3ncnc(C)c3O)[C@H]3CC[C@@H]32)c(=O)c2nn(-c3ccnc(OC)c3)nc2n1CC(=O)NC12CC(C3CCC3)(C1)C2 [I-80, N-{3-cyclobutylbicyclo[1.1.1]pentan-1-yl}-2-{5-ethyl-6-[(1S,6S)-5-(5-hydroxy-6-methylpyrimidine-4-carbonyl)-2,5-diazabicyclo[4.2.0]octan-2-yl]-2-(2-methoxypyridin-4-yl)-7-oxo-2H,4H,7H-[1,2,3]triazolo[4,5-b]pyridin-4-yl}acetamide]
10 | > 500 | CCc1c(N2CCN(C(=O)c3c(OC)ncc(C)c3O)CC2)c(=O)c2nn(-c3ccnc(OC)c3)nc2n1CC(=O)NC12CC(N3CCCC3)(C1)C2 [I-126, 2-{5-ethyl-6-[4-(4-hydroxy-2-methoxy-5-methylpyridine-3-carbonyl)piperazin-1-yl]-2-(2-methoxypyridin-4-yl)-7-oxo-2H,4H,7H-[1,2,3]triazolo[4,5-b]pyridin-4-yl}-N-[3-(pyrrolidin-1-yl)bicyclo[1.1.1]pentan-1-yl]acetamide]
11 | ≤ 5 | CCc1c(N2CCN(C(=O)c3c(O)ccc4ncoc34)[C@H]3CC[C@@H]32)c(=O)c2nn(-c3ccnc(OC)c3)nc2n1CC(=O)NC12CC(C(C)C)(C1)C2 [I-136, 2-{5-ethyl-6-[(1S,6S)-5-(6-hydroxy-1,3-benzoxazole-7-carbonyl)-2,5-diazabicyclo[4.2.0]octan-2-yl]-2-(2-methoxypyridin-4-yl)-7-oxo-2H,4H,7H-[1,2,3]triazolo[4,5-b]pyridin-4-yl}-N-[3-(propan-2-yl)bicyclo[1.1.1]pentan-1-yl]acetamide]
12 | ≤ 5 | CCc1c(N2CCN(C(=O)c3ncnc(C)c3O)[C@H]3CC[C@@H]32)c(=O)c2nn(-c3ccc(OC)cc3)nc2n1CC(=O)NC12CC(C(C)C)(C1)C2 [I-145, 2-{5-ethyl-6-[(1S,6S)-5-(5-hydroxy-6-methylpyrimidine-4-carbonyl)-2,5-diazabicyclo[4.2.0]octan-2-yl]-2-(4-methoxyphenyl)-7-oxo-2H,4H,7H-[1,2,3]triazolo[4,5-b]pyridin-4-yl}-N-[3-(propan-2-yl)bicyclo[1.1.1]pentan-1-yl]acetamide]
13 | ≤ 5 | CCc1c(N2CCN(C(=O)c3nocc3O)[C@H]3CC[C@@H]32)c(=O)c2nn(C3=CCOCC3)nc2n1CC(=O)NC12CC(C(C)C)(C1)C2 [I-161, 2-[2-(3,6-dihydro-2H-pyran-4-yl)-5-ethyl-6-[(1S,6S)-5-(4-hydroxy-1,2-oxazole-3-carbonyl)-2,5-diazabicyclo[4.2.0]octan-2-yl]-7-oxo-2H,4H,7H-[1,2,3]triazolo[4,5-b]pyridin-4-yl]-N-[3-(propan-2-yl)bicyclo[1.1.1]pentan-1-yl]acetamide]
